Data published in PubChem BioAssay (NCI).
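Five concentrations, 48 hours, 96-well plates. Here, GI50 denotes the concentration required for 50% inhibition of growth. The concentration for full growth arrest is given as TGI.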

Legend:
Assay in all cases: NCI tumour cell line growth inhibition, 48 h
A498 renal = test system: A498 renal
HL-60(TB) leukemia = test system: HL-60(TB) leukemia
HOP-62 NSCLC = test system: HOP-62 NSCLC
IGROV1 ovarian = test system: IGROV1 ovarian
NCI-H23 lung = test system: NCI-H23 lung
NCI-H522 lung = test system: NCI-H522 lung
BT-549 breast = test system: BT-549 breast
DU-145 prostate = test system: DU-145 prostate
MDA-MB-435 = test system: MDA-MB-435
MDA-N = test system: MDA-N
PC-3 prostate = test system: PC-3 prostate

CC(=O)c1ccc(NC(=O)/C(=N\NC(N)=O)C(C#N)CC(C)(C)C=O)cc1 (stereo unspecified)
TGI (A498 renal): > 100 µM
TGI (HL-60(TB) leukemia): > 100 µM
TGI (HOP-62 NSCLC): > 100 µM
TGI (IGROV1 ovarian): > 100 µM
TGI (NCI-H23 lung): > 100 µM
TGI (NCI-H522 lung): > 100 µM

C[C@]12CCC(=O)C=C1CC[C@@H]1[C@@H]2C(=O)C[C@@]2(C)[C@H]1CC[C@]2(O)C(=O)CO
TGI (A498 renal): > 100 µM
TGI (HL-60(TB) leukemia): > 100 µM
TGI (IGROV1 ovarian): > 100 µM
TGI (NCI-H23 lung): > 100 µM
TGI (NCI-H522 lung): > 100 µM

CC(NC(=O)C(C)C(=O)NCc1ccc(C(F)(F)F)cc1)C(N)=O (stereo unspecified)
TGI (BT-549 breast): > 100 µM
TGI (DU-145 prostate): > 100 µM
TGI (HL-60(TB) leukemia): > 100 µM
TGI (IGROV1 ovarian): > 100 µM
TGI (MDA-MB-435): > 100 µM
TGI (MDA-N): > 100 µM
TGI (NCI-H23 lung): > 100 µM
TGI (NCI-H522 lung): > 100 µM
TGI (PC-3 prostate): > 100 µM

Oc1c(I)cc(I)cc1CNCCCN(Cc1ccccn1)Cc1ccccn1
GI50 (A498 renal): 0.661 µM
TGI (A498 renal): 1.32 µM
GI50 (DU-145 prostate): 1.51 µM
TGI (DU-145 prostate): 4.63 µM
GI50 (HL-60(TB) leukemia): 1.08 µM
TGI (HL-60(TB) leukemia): 2.51 µM
GI50 (HOP-62 NSCLC): 1.02 µM
TGI (HOP-62 NSCLC): 2.35 µM
GI50 (IGROV1 ovarian): 0.866 µM
TGI (IGROV1 ovarian): 1.65 µM
GI50 (MDA-MB-435): 0.997 µM
TGI (MDA-MB-435): 2 µM
GI50 (NCI-H23 lung): 1.16 µM
TGI (NCI-H23 lung): 3.22 µM
GI50 (NCI-H522 lung): 1.34 µM
TGI (NCI-H522 lung): 4.48 µM
GI50 (PC-3 prostate): 1.17 µM
TGI (PC-3 prostate): 3.02 µM

C=C(C)CC1=C(C(=S)NCCO[Si](C)(C)C(C)(C)C)C(OCC)(OCC)C1=O
TGI (A498 renal): 40.5 µM
TGI (DU-145 prostate): 76.3 µM
TGI (HL-60(TB) leukemia): > 100 µM
TGI (HOP-62 NSCLC): 34.3 µM
TGI (IGROV1 ovarian): 31.3 µM
TGI (MDA-MB-435): 41.9 µM
TGI (MDA-N): 43.2 µM
TGI (NCI-H23 lung): 40.5 µM
TGI (NCI-H522 lung): 29 µM
TGI (PC-3 prostate): 29.4 µM

O=C1CCC2=C(CCC2)N1CCc1ccc2c(c1)OCO2
TGI (BT-549 breast): 85.4 µM
TGI (DU-145 prostate): > 100 µM
TGI (HL-60(TB) leukemia): 55.7 µM
TGI (HOP-62 NSCLC): > 100 µM
TGI (IGROV1 ovarian): > 100 µM
TGI (MDA-N): > 100 µM
TGI (NCI-H23 lung): > 100 µM
TGI (NCI-H522 lung): > 100 µM
TGI (PC-3 prostate): > 100 µM

COC(=O)c1ccc(C)cc1C1CN=NC12Cc1cc(C)c(C)cc1C2=O (stereo unspecified)
TGI (A498 renal): > 100 µM
TGI (DU-145 prostate): > 100 µM
TGI (HL-60(TB) leukemia): 55.2 µM
TGI (HOP-62 NSCLC): > 100 µM
TGI (IGROV1 ovarian): > 100 µM
TGI (MDA-MB-435): 96.6 µM
TGI (MDA-N): > 100 µM
TGI (NCI-H23 lung): > 100 µM
TGI (NCI-H522 lung): 78.4 µM

CC1NOC(NS(=O)(=O)c2ccc(N=Nc3c(O)c(C(=O)O)cc4ccccc34)cc2)C1C (stereo unspecified)
TGI (BT-549 breast): > 100 µM
TGI (HL-60(TB) leukemia): > 100 µM
TGI (HOP-62 NSCLC): > 100 µM
TGI (IGROV1 ovarian): > 100 µM
TGI (MDA-MB-435): > 100 µM
TGI (NCI-H522 lung): > 100 µM
TGI (PC-3 prostate): > 100 µM

c1ccc(C(CCN2CCCC2)c2ccccn2)cc1 (stereo unspecified)
TGI (A498 renal): > 100 µM
TGI (BT-549 breast): > 100 µM
TGI (DU-145 prostate): > 100 µM
TGI (HOP-62 NSCLC): > 100 µM
TGI (IGROV1 ovarian): > 100 µM
TGI (MDA-MB-435): > 100 µM
TGI (MDA-N): > 100 µM
TGI (NCI-H23 lung): > 100 µM
TGI (NCI-H522 lung): > 100 µM
TGI (PC-3 prostate): > 100 µM

COc1ccc(C2C(C(=O)O)=C(COC(C)=O)Oc3cc4c(cc32)OCO4)cc1 (stereo unspecified)
TGI (HL-60(TB) leukemia): > 100 µM
TGI (HOP-62 NSCLC): > 100 µM
TGI (IGROV1 ovarian): > 100 µM
TGI (NCI-H23 lung): > 100 µM

Cc1ccc(NC(=O)c2cccc([N+](=O)[O-])c2O)c(C)c1
TGI (A498 renal): 63.5 µM
TGI (HL-60(TB) leukemia): 55.6 µM
TGI (HOP-62 NSCLC): > 100 µM
TGI (IGROV1 ovarian): > 100 µM
TGI (NCI-H23 lung): > 100 µM
TGI (NCI-H522 lung): 70.1 µM

c1ccc(C(=NNc2nc3ccccc3[nH]2)c2ccccn2)nc1
TGI (A498 renal): 4.94 µM
TGI (BT-549 breast): 97.9 µM
TGI (DU-145 prostate): > 100 µM
TGI (HOP-62 NSCLC): 2.62 µM
TGI (IGROV1 ovarian): 2.64 µM
TGI (MDA-MB-435): > 74 µM
TGI (MDA-N): > 100 µM
TGI (NCI-H23 lung): > 100 µM
TGI (NCI-H522 lung): 0.089 µM
TGI (PC-3 prostate): 5.43 µM

c1ccc([C@H]2CN3CCSC3=N2)cc1
TGI (A498 renal): > 100 µM
TGI (DU-145 prostate): > 100 µM
TGI (HL-60(TB) leukemia): > 100 µM
TGI (HOP-62 NSCLC): > 100 µM
TGI (IGROV1 ovarian): > 100 µM
TGI (MDA-MB-435): > 100 µM
TGI (MDA-N): > 100 µM
TGI (NCI-H23 lung): > 100 µM
TGI (NCI-H522 lung): > 100 µM
TGI (PC-3 prostate): > 100 µM

NCCCCNCCCN
TGI (A498 renal): > 100 µM
TGI (BT-549 breast): > 100 µM
TGI (DU-145 prostate): > 100 µM
TGI (HL-60(TB) leukemia): > 100 µM
TGI (HOP-62 NSCLC): > 100 µM
TGI (IGROV1 ovarian): > 100 µM
TGI (MDA-MB-435): > 100 µM
TGI (NCI-H23 lung): > 100 µM
TGI (NCI-H522 lung): > 100 µM
TGI (PC-3 prostate): > 100 µM

O=C(NN=C1CCCCC1)Nc1ccccc1Cl
TGI (BT-549 breast): > 100 µM
TGI (DU-145 prostate): > 100 µM
TGI (HL-60(TB) leukemia): > 100 µM
TGI (IGROV1 ovarian): > 100 µM
TGI (MDA-MB-435): 47.5 µM
TGI (MDA-N): 39 µM
TGI (NCI-H23 lung): > 100 µM
TGI (NCI-H522 lung): > 100 µM
TGI (PC-3 prostate): > 100 µM

O=c1[nH]c(=O)n(C2CC(O)C(CO)O2)cc1NN=NCc1ccccc1 (stereo unspecified)
TGI (BT-549 breast): > 100 µM
TGI (DU-145 prostate): > 100 µM
TGI (HL-60(TB) leukemia): > 100 µM
TGI (HOP-62 NSCLC): > 100 µM
TGI (IGROV1 ovarian): > 100 µM
TGI (MDA-MB-435): > 100 µM
TGI (MDA-N): > 100 µM
TGI (NCI-H23 lung): > 100 µM
TGI (NCI-H522 lung): > 100 µM
TGI (PC-3 prostate): > 100 µM

Cc1cc(S(=O)(=O)O)ccc1N=Nc1ccc(N=Nc2c(O)ccc3ccccc23)c(C)c1
TGI (BT-549 breast): > 100 µM
TGI (DU-145 prostate): > 100 µM
TGI (HOP-62 NSCLC): > 100 µM
TGI (IGROV1 ovarian): > 100 µM
TGI (MDA-MB-435): > 100 µM
TGI (MDA-N): > 100 µM
TGI (NCI-H23 lung): > 100 µM
TGI (NCI-H522 lung): 68.5 µM
TGI (PC-3 prostate): > 100 µM
